From patent publication US8871796B2, “Diaryl ether derivatives as notch sparing gamma secretase inhibitors” (Merck Sharp & Dohme Corp., priority 2009, dated 2014)
Where two headings read alike, the source gives them in different places.

Experiment: APP processing: AlphaLisa assay of secreted Aβ40 and Aβ42 from SP4CT cells
Assay type: cell-based
Settings: Homo sapiens, SH-SY5Y cells expressing amyloid β protein (SP4CT cells)
Protocol: APP Processing (Assay Quantitates Secreted Aβ Analytes from Cell Lines):
The effect of compounds on the abundance of Aβ40 and Aβ42 peptides generated from SH-SY5Y cells expressing amyloid β protein (SP4CT cells) are determined by an AlphaLisa™ assay. Analogous to an ELISA assay, generation of […] AlphaLisa™ assay requires “donor” and “acceptor” beads to be brought in close proximity by specific antibody recognition of either Aβ40 or Aβ42 peptides. The assay is accomplished by removing media from compound-treated SP4CT cells to two different microplates, followed by the addition of donor beads conjugated with streptavidin binding a biotinylated anti-amyloid β monocolonal antibody (clone 4G8). Acceptor beads directly conjugated with anti-Aβ40 monoclonal antibody (G210) are added to one microplate and anti-Aβ42 monoclonal antibody (12F4) acceptor beads were added to the other. Abundance of Aβ40 and Aβ42 is directly proportional to the luminescent signal generated following excitation of donor beads by laser light.

[1] = read-out: IC50, inhibition of production of Aβ40 peptide
[2] = read-out: IC50, inhibition of production of Aβ42 peptide

**Q.** What does the source list for `CCn1nc(Oc2ccc(C(F)(F)F)cc2)c(Cl)c1-c1cccc(C(C)(C)NS(=O)(=O)CC(F)(F)F)c1` [Example 113, N-[2-(3-{4-chloro-1-ethyl-3-[4-(trifluoromethyl)phenoxy]-1H-pyrazol-5-yl}phenyl)propan-2-yl]-2,2,2-trifluoroethanesulfonamide]?
**A.** IC50 [1]: < 200 nM; IC50 [2]: < 200 nM

**Q.** For `CCn1nc(Oc2ccc(C(F)(F)F)cc2)cc1-c1cccc(C(C)(C)NS(=O)(=O)CC(F)(F)F)c1` [Example 20, N-[1-(3-{1-ethyl-3-[4-(trifluoromethyl)phenoxy]-1H-pyrazol-5-yl}phenyl)-1-methylethyl]-2,2,2-trifluoroethanesulfonamide], which IC50 [1] is on record?
**A.** Its IC50 is less than 200 nM.

**Q.** What about the IC50 [2] of the same compound?
**A.** Its IC50 is less than 200 nM.

**Q.** What does the source list for `CCn1nc(-c2cccc(C(C)(C)NS(=O)(=O)CC(F)(F)F)c2)cc1Oc1ccc(F)cc1` [Example 56, N-(1-{3-[1-ethyl-5-(4-fluorophenoxy)-1H-pyrazol-3-yl]phenyl}-1-methylethyl)-2,2,2-trifluoroethanesulfonamide]?
**A.** IC50 [1]: < 200 nM; IC50 [2]: < 200 nM

**Q.** With `CCn1nc(-c2cccc(C(C)(C)NS(=O)(=O)CC(F)(F)F)c2)cc1Oc1ccc(CNc2cccnc2)cc1` [Example 85, N-{1-[3-(1-ethyl-5-{4-[(pyridin-3-ylamino)methyl]phenoxy}-1H-pyrazol-3-yl)phenyl]-1-methylethyl}-2,2,2-trifluoroethanesulfonamide] as the compound, how does the IC50 [1] read?
**A.** Its IC50 is less than 200 nM.

**Q.** What about the IC50 [2] of the same compound?
**A.** The IC50 was less than 200 nM.

**Q.** Which IC50 [1] does the source give for `CCn1nc(-c2cccc(C3(NS(=O)(=O)NCC(F)(F)F)CC3)c2)cc1Oc1ccc(C(F)(F)F)cc1` [Example 36, N-[1-(3-{1-ethyl-5-[4-(trifluoromethyl)phenoxy]-1H-pyrazol-3-yl}phenyl)cyclopropyl]-N′-(2,2,2-trifluoroethyl)sulfamide] here?
**A.** The IC50 was less than 200 nM.

**Q.** What about the IC50 [2] of the same compound?
**A.** The IC50 was less than 200 nM.

**Q.** Which IC50 [1] does the source give for `CCn1nc(-c2cccc(C(C)(C)NS(=O)(=O)CC(F)(F)F)c2)cc1Oc1ccc(C)cc1` [Example 59, N-(1-{3-[1-ethyl-5-(4-methylphenoxy)-1H-pyrazol-3-yl]phenyl}-1-methylethyl)-2,2,2-trifluoroethanesulfonamide] here?
**A.** Its IC50 is less than 200 nM.

**Q.** And the IC50 [2]?
**A.** Its IC50 is less than 200 nM.

**Q.** With `CCn1nc(-c2cccc(C(C)(C)NS(=O)(=O)NCC(C)C)c2)cc1Oc1ccc(C(F)(F)F)cc1` [Example 9, N-[1-(3-{1-ethyl-5-[4-(trifluoromethyl)phenoxy]-1H-pyrazol-3-yl}phenyl)-1-methylethyl]-N′-isobutylsulfamide] as the compound, how does the IC50 [1] read?
**A.** The IC50 was less than 200 nM.

**Q.** What about the IC50 [2] of the same compound?
**A.** The IC50 was less than 200 nM.

**Q.** For `CCn1nc(Oc2ccc(C(F)(F)F)cc2)cc1-c1cccc(C2(NS(=O)(=O)NCC(C)C)CC2)c1` [Example 30, N-[1-(3-{1-ethyl-3-[4-(trifluoromethyl)phenoxy]-1H-pyrazo1-5-yl}phenyl)cyclopropyl]-N′-isobutylsulfamide], which IC50 [1] is on record?
**A.** The IC50 was less than 200 nM.

**Q.** And the IC50 [2]?
**A.** The IC50 was less than 200 nM.

**Q.** For `CCn1nc(Oc2ccc(C(F)(F)F)cc2)cc1-c1cccc(C(C)(C)NS(=O)(=O)NCC(C)C)c1` [Example 17, N-[1-(3-{1-ethyl-3-[4-(trifluoromethyl)phenoxy]-1H-pyrazol-5-yl}phenyl)-1-methylethyl]-N′-isobutylsulfamide], which IC50 [1] is on record?
**A.** The IC50 was less than 200 nM.

**Q.** What about the IC50 [2] of the same compound?
**A.** Its IC50 is less than 200 nM.

**Q.** With `CCn1nc(Oc2ccc(C(F)(F)F)cc2)cc1-c1cccc(C2(NS(=O)(=O)NCC3CCC3)COC2)c1` [Example 103] as the compound, how does the IC50 [1] read?
**A.** Its IC50 is less than 200 nM.

**Q.** What about the IC50 [2] of the same compound?
**A.** The IC50 was less than 200 nM.

**Q.** What does the source list for `CCn1nc(-c2cccc(C3(NS(=O)(=O)CC(F)(F)F)CC3)n2)cc1Oc1ccc(C(F)(F)F)cc1` [Example 51, N-[1-(6-{1-ethyl-5-[4-(trifluoromethyl)phenoxy]-1H-pyrazol-3-yl}pyridin-2-yl)cyclopropyl]-2,2,2-trifluoroethanesulfonamide]?
**A.** IC50 [1]: < 200 nM; IC50 [2]: < 200 nM

**Q.** With `CCn1nc(Oc2ccc(Cl)nc2)cc1-c1cccc(C(C)(C)NS(=O)(=O)CC(F)(F)F)c1` [Example 22, N-[1-(3-{3-[(6-chloropyridin-3-yl)oxy]-1-ethyl-1H-pyrazol-5-yl]phenyl)-1-methylethyl]-2,2,2-trifluoroethanesulfonamide] as the compound, how does the IC50 [1] read?
**A.** The IC50 was less than 200 nM.

**Q.** And the IC50 [2]?
**A.** Its IC50 is less than 200 nM.
